Results reported in patent US9776979B2, “EBI2 modulators” (Sanford-Burnham Medical Research Institute, priority 2013, dated 2017).

target: EBI2 (Homo sapiens, UniProt P32249); test: Cell-based luminescent assay (EBI2 modulation); conditions: cell-based luminescence; 7a,25-OHC final assay concentration 80 nM; 60 minutes incubation; read-out: IC50
Outline: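 Cells plated overnight at 37° C, then exposed to compound at 4-5 uM final with 80 nM 7a,25-OHC agonist for 60 min at 37° C. Luminescence read after 60 min detection at 25° C in the dark; values normalized to neutral and stimulator controls and plate-pattern corrected.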

Chain of EBI2 (P32249 whole entry): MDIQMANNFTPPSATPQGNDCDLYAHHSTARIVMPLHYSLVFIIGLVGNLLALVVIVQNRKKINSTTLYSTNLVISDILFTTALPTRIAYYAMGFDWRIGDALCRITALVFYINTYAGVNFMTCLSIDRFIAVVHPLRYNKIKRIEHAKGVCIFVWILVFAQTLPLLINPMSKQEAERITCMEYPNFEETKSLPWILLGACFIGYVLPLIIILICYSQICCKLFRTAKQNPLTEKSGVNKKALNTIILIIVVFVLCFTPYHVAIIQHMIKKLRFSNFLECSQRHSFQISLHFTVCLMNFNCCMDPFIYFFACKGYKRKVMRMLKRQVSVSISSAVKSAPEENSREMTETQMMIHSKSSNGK

IC50 | SMILES
< 100 nM | CC(C)CN1CCN(C(=O)/C=C/c2ccccc2)CC1 [Compound C392, (2E)-1-[4-(methylpropyl)piperzinyl]-3-phenylprop-2-en-1-one]
< 100 nM | N#Cc1cccc(C(=O)N2CCN(C(=O)c3cc4cc(Cl)ccc4[nH]3)CC2)c1 [Compound C395, 3-({4-[(5-chloroindol-2-yl)carbonyl]piperazinyl}carbonyl)benzenecarbonitrile]
< 100 nM | O=C(Nc1cccc(Cl)c1)C1CCN(C(=O)c2cc3cc(Cl)ccc3[nH]2)CC1 [Compound C396, {1-[(5-chloroindol-2-yl)carbonyl](4-piperidyl)}-N-(3-chlorophenyl)carboxamide]
< 100 nM | O=Cc1ccc(C(=O)N2CCN(C(=O)c3cc4cc(Cl)ccc4[nH]3)CC2)cc1 [Compound C397, 4-({4-[(5-chloroindol-2-yl)carbonyl]piperazinyl}carbonyl)benzaldehyde]
< 100 nM | O=C(C#Cc1ccc(Cl)cc1)N1CCN(C(=O)c2ccc(F)cc2C(F)(F)F)CC1 [Compound C399, 3-(4-chlorophenyl)-1-(4-{[4-fluoro-2-(trifluoromethyl)phenyl]carbonyl}piperazinyl)prop-2-yn-1-one]
< 100 nM | Cc1cccc(N2CCN(C(=O)c3cc4cc(Cl)ccc4[nH]3)CC2)c1C [Compound C400, 4-(2,3-dimethylphenyl)piperazinyl 5-chloroindol-2-yl ketone]
< 100 nM | O=C(C#Cc1ccc(Br)cc1)N1CCN(Cc2ccc(F)cc2)CC1 [Compound C401, 3-(4-bromophenyl)-1-{4-[(4-fluorophenyl)methyl]piperazinyl}prop-2-yn-1-one]
< 100 nM | O=C(c1cc2cc(Cl)ccc2[nH]1)N1CCN(Cc2ccc(C(F)(F)F)c(F)c2)CC1 [Compound C402, 5-chloroindol-2-yl 4-{[3-fluoro-4-(trifluoromethyl)phenyl]methyl}piperazinyl ketone]
< 100 nM | O=C(c1cc2cc(Cl)ccc2[nH]1)N1CCN(Cc2cccc(-c3ccccc3)c2)CC1 [Compound C403, 5-chloroindol-2-yl 4-[(3-phenylphenyl)methyl]piperazinyl ketone]
< 100 nM | O=C(/C=C/c1ccc(Br)cc1F)N1CCN(S(=O)(=O)c2ccccc2)CC1 [Compound C404, (2E)-3-(4-bromo-2-fluorophenyl)-1-[4-(phenylsulfonyl)piperazinyl]prop-2-en-1-one]
100 to 500 nM | O=C(/C=C/c1ccccc1)N1CCN(CCOc2ccc(Cl)cc2Cl)CC1 [Compound C407, (2E)-1-{4-[2-(2,4-dichlorophenoxy)ethyl]piperazinyl}-3-phenylprop-2-en-1-one]
100 to 500 nM | O=C(C#Cc1ccc(Br)cc1)N1CCN(Cc2ccc(C(F)(F)F)cc2)CC1 [Compound C408, 3-(4-bromophenyl)-1-(4-{[4-(trifluoromethyl)phenyl]methyl}piperazinyl)prop-2-yn-1-one]
100 to 500 nM | O=C(c1ccc(B(O)O)cc1)N1CCN(C(=O)c2cc3cc(Cl)ccc3[nH]2)CC1 [Compound C409, 4-(4-(5-chloro-1H-indole-2-carbonyl)piperazine-1-carbonyl)phenylboronic acid]
100 to 500 nM | O=C(c1cc2cc(Cl)ccc2[nH]1)N1CCC(Oc2ccccc2)CC1 [Compound C413, 5-chloroindol-2-yl 4-phenoxypiperidyl ketone]
100 to 500 nM | O=C(Oc1ccccc1)N1CCN(C(=O)c2cc3cc(Cl)ccc3[nH]2)CC1 [Compound C416, phenyl 4-[(5-chloroindol-2-yl)carbonyl]piperazinecarboxylate]
100 to 500 nM | O=C(Nc1cccc(F)c1)C1CCN(C(=O)c2cc3cc(Cl)ccc3[nH]2)CC1 [Compound C417, {1-[(5-chloroindol-2-yl)carbonyl](4-piperidyl)}-N-(3-fluorophenyl)carboxamide]
100 to 500 nM | O=C(c1cc2cc(Cl)ccc2[nH]1)N1CCN(Cc2ccc(F)c(C(F)(F)F)c2)CC1 [Compound C420, 5-chloroindol-2-yl 4-{[4-fluoro-3-(trifluoromethyl)phenyl]methyl}piperazinyl ketone]
100 to 500 nM | COc1ccc(-c2ccc(S(=O)(=O)N3CCN(C(=O)c4cc5cc(Cl)ccc5[nH]4)CC3)cc2)cc1 [Compound C421, 5-chloroindol-2-yl 4-{[4-(4-methoxyphenyl)phenyl]sulfonyl}piperazinyl ketone]
100 to 500 nM | O=C(c1cc2cc(Cl)ccc2[nH]1)N1CCN(Cc2cc(C(F)(F)F)cc(C(F)(F)F)c2)CC1 [Compound C423, 4-{[3,5-bis(trifluoromethyl)phenyl]methyl}piperazinyl 5-chloroindol-2-yl ketone]
100 to 500 nM | O=C(c1cc2cc(Cl)ccc2[nH]1)N1CCN(Cc2ccc(F)cc2C(F)(F)F)CC1 [Compound C426, 5-chloroindol-2-yl 4-{[4-fluoro-2-(trifluoromethyl)phenyl]methyl}piperazinyl ketone]

IC50 | SMILES
100 to 500 nM | O=C(c1cc2cc(Cl)ccc2[nH]1)N1CCN(Cc2ccc(F)cc2F)CC1 [Compound C427, 4-[(2,4-difluorophenyl)methyl]piperazinyl 5-chloroindol-2-yl ketone]
100 to 500 nM | O=C(c1cc2cc(Cl)ccc2[nH]1)N1CCN(Cc2ccc(Cl)cc2C(F)(F)F)CC1 [Compound C428, 5-chloroindol-2-yl 4-{[4-chloro-2-(trifluoromethyl)phenyl]methyl}piperazinyl ketone]
100 to 500 nM | O=C(Nc1ccc(Cl)cc1)N1CCN(C(=O)c2cc3cc(Cl)ccc3[nH]2)CC1 [Compound C429, {4-[(5-chloroindol-2-yl)carbonyl]piperazinyl}-N-(4-chlorophenyl)carboxamide]
100 to 500 nM | O=C(C=Cc1ccc2c(c1)OCO2)N1CCN(C(=O)c2ccc(C(F)(F)F)cc2)CC1 [Compound C430, 3-(2H-benzo[3,4-d]1,3-dioxolen-5-yl)-1-(4-{[4-(trifluoromethyl)phenyl]carbonyl}piperazinyl)prop-2-en-1-one]
100 to 500 nM | O=C(c1cc2cc(Cl)ccc2[nH]1)N1CCN(c2ccc(F)cc2F)CC1 [Compound C434, 4-(2,4-difluorophenyl)piperazinyl 5-chloroindol-2-yl ketone]
100 to 500 nM | O=C(C#Cc1ccc(Cl)cc1)N1CCN(Cc2ccc(F)cc2C(F)(F)F)CC1 [Compound C435, 3-(4-chlorophenyl)-1-(4-{[4-fluoro-2-(trifluoromethyl)phenyl]methyl}piperazinyl)prop-2-yn-1-one]
100 to 500 nM | O=C(c1cc(Br)c[nH]1)N1CCN(C(c2ccccc2)c2ccccc2)CC1 [Compound C436, 4-(diphenylmethyl)piperazinyl 4-bromopyrrol-2-yl ketone]
100 to 500 nM | O=C(C#Cc1ccc(Cl)c(Cl)c1)N1CCN(C(=O)c2ccc(F)cc2C(F)(F)F)CC1 [Compound C437, 3-(3,4-dichlorophenyl)-1-(4-{[4-fluoro-2-(trifluoromethyl)phenyl]carbonyl}piperazinyl)prop-2-yn-1-one]
100 to 500 nM | O=C(/C=C/c1ccc(Cl)cc1F)N1CCN(S(=O)(=O)c2ccccc2)CC1 [Compound C439, (2E)-3-(4-chloro-2-fluorophenyl)-1-[4-(phenylsulfonyl)piperazinyl]prop-2-en-1-one]
100 to 500 nM | O=C(c1cccc(B(O)O)c1)N1CCN(C(=O)c2cc3cc(Cl)ccc3[nH]2)CC1 [Compound C440, 3-(4-(5-chloro-1H-indole-2-carbonyl)piperazine-1-carbonyl)phenylboronic acid]
100 to 500 nM | O=C(/C=C/c1cc(Br)ccc1F)N1CCN(C(c2ccccc2)c2ccccc2)CC1 [Compound C441, (2E)-1-[4-(diphenylmethyl)piperazinyl]-3-(5-bromo-2-fluorophenyl)prop-2-en-1-one]
100 to 500 nM | Cc1ccccc1/C=C/C(=O)N1CCN(S(=O)(=O)c2ccc(Br)cc2)CC1 [Compound C442, (2E)-1-{4-[(4-bromophenyl)sulfonyl]piperazinyl}-3-(2-methylphenyl)prop-2-en-1-one]
100 to 500 nM | O=C(c1cc2ccc(Cl)cc2[nH]1)N1CCN(C(=O)c2ccc(F)cc2C(F)(F)F)CC1 [Compound C447, 6-chloroindol-2-yl 4-{[4-fluoro-2-(trifluoromethyl)phenyl]carbonyl}piperazinyl ketone]
100 to 500 nM | CC(C)(C)c1ccc(S(=O)(=O)N2CCN(C(=O)/C=C/c3ccc(Cl)cc3F)CC2)cc1 [Compound C448, (2E)-1-(4-{[4-(tert-butyl)phenyl]sulfonyl}piperazinyl)-3-(4-chloro-2-fluorophenyl)prop-2-en-1-one]
100 to 500 nM | O=C(c1cc2cc(Cl)ccc2[nH]1)N1CCC(NC2CCCC2)CC1 [Compound C449, 5-chloroindol-2-yl 4-(cyclopentylamino)piperidyl ketone]
100 to 500 nM | O=C(Nc1ccc(F)c(C(F)(F)F)c1)N1CCN(C(=O)c2cc3cc(Cl)ccc3[nH]2)CC1 [Compound C450, {4-[(5-chloroindol-2-yl)carbonyl]piperazinyl}-N-[4-fluoro-3-(trifluoromethyl)phenyl]carboxamide]
100 to 500 nM | O=C(Nc1cccc(F)c1)N1CCN(C(=O)c2cc3cc(Cl)ccc3[nH]2)CC1 [Compound C451, {4-[(5-chloroindol-2-yl)carbonyl]piperazinyl}-N-(3-fluorophenyl)carboxamide]
100 to 500 nM | O=C(c1cc2ccccc2o1)N1CCN(Cc2ccc3c(c2)OCO3)CC1 [Compound C452, 4-(2H-benzo[d]1,3-dioxolan-5-ylmethyl)piperazinyl benzo[d]furan-2-yl ketone]
100 to 500 nM | Cc1ccc(/C=C/C(=O)N2CCN(C(c3ccccc3)c3ccccc3)CC2)cc1 [Compound C453, (2E)-1-[4-(diphenylmethyl)piperazinyl]-3-(4-methylphenyl)prop-2-en-1-one]
100 to 500 nM | O=C(c1cc2cc(Cl)ccc2[nH]1)N1CCN(S(=O)(=O)c2ccc(-c3ccccc3)cc2)CC1 [Compound C454, 5-chloroindol-2-yl 4-[(4-phenylphenyl)sulfonyl]piperazinyl ketone]

SMILES | IC50
O=C(CCc1ccc(F)cc1)N1CCN(S(=O)(=O)/C=C/c2ccccc2)CC1 [Compound C406, 1-{4-[((1E)-2-phenylvinyl)sulfonyl]piperazinyl}-3-(4-fluorophenyl)propan-1-one] | 100 to 500 nM
